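1) Cells in 96-well plates. 2) Compound, 48 h, 5 concentrations. 3) Linear interpolation between surrounding doses. 4) Unreached endpoint = highest concentration. TGI: total growth inhibition.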
Legend:
Assay in all cases: growth of human tumour cells (NCI), 48 h
[1] = test system: U251 CNS
[2] = test system: HL-60(TB) leukemia
[3] = test system: HT29 colon
[4] = test system: OVCAR-5 ovarian
[5] = test system: A498 renal
[6] = test system: MDA-MB-231 breast
[7] = test system: CAKI-1 renal
[8] = test system: RXF 393 renal
[9] = test system: CCRF-CEM leukemia
[10] = test system: ACHN renal
[11] = test system: 786-0 renal
[12] = test system: SK-MEL-2 melanoma
[13] = test system: IGROV1 ovarian
[14] = test system: KM12 colon
[15] = test system: SK-OV-3 ovarian
[16] = test system: OVCAR-4 ovarian
[17] = test system: LOX IMVI melanoma
[18] = test system: HS 578T breast
[19] = test system: SR leukemia
[20] = test system: SNB-75 CNS
[21] = test system: NCI-H226 lung
[22] = test system: MDA-N
[23] = test system: UACC-62 melanoma
[24] = test system: M14 melanoma
[25] = test system: DU-145 prostate
[26] = test system: HOP-92 NSCLC
[27] = test system: SF-539 CNS
[28] = test system: COLO 205 colon
[29] = test system: RPMI-8226 leukemia
[30] = test system: T-47D breast
[31] = test system: UACC-257 melanoma
[32] = test system: SNB-19 CNS
[33] = test system: A549 NSCLC
[34] = test system: MOLT-4 leukemia
[35] = test system: NCI/ADR-RES ovarian
[36] = test system: PC-3 prostate
[37] = test system: UO-31 renal
[38] = test system: SK-MEL-28 melanoma
[39] = test system: K-562 leukemia
[40] = test system: SF-295 CNS
[41] = test system: SW-620 colon
[42] = test system: HOP-62 NSCLC
[43] = test system: SF-268 CNS
[44] = test system: NCI-H460 lung
[45] = test system: SK-MEL-5 melanoma
[46] = test system: TK-10 renal
[47] = test system: MALME-3M melanoma
[48] = test system: BT-549 breast
[49] = test system: MDA-MB-435
[50] = test system: NCI-H23 lung
[51] = test system: NCI-H522 lung
[52] = test system: OVCAR-3 ovarian
[53] = test system: HCT-116 colon
[54] = test system: OVCAR-8 ovarian
[55] = test system: SN12C renal
[56] = test system: EKVX NSCLC
[57] = test system: HCT-15 colon
[58] = test system: HCC-2998 colon
[59] = test system: MCF7 breast

`Cc1c(O)c(Br)c(C)c(O)c1Br` (tested in a mixture with another compound) showed a TGI [1] of 24.4 µM, a TGI [2] of 3.22 µM and a TGI [3] of 4.78 µM. The TGI [4] was 34.9 µM, the TGI [5] was 29 µM and the TGI [6] was 25.5 µM. The TGI [7] was 3.67 µM, the TGI [8] was 3.33 µM and the TGI [9] was 0.807 µM. It also gave a TGI [10] of 3.05 µM, a TGI [11] of 3.2 µM and a TGI [12] of 10.7 µM. The TGI [13] was 20.5 µM, the TGI [14] was 41.2 µM and the TGI [15] was 29.4 µM. For the same compound, the TGI [16] was 3.04 µM, the TGI [17] was 3.44 µM and the TGI [18] was 19.9 µM. The TGI [19] was 3.28 µM, the TGI [20] was 29.3 µM and the TGI [21] was 14.8 µM. It also gave a TGI [22] of 3.26 µM, a TGI [23] of 10.8 µM and a TGI [24] of 3.1 µM. It also gave a TGI [25] of 5.15 µM, a TGI [26] of 3.03 µM and a TGI [27] of 10 µM. It also gave a TGI [28] of 3.6 µM, a TGI [29] of 6.06 µM and a TGI [30] of 5.54 µM. The TGI [31] was 3.02 µM, the TGI [32] was 41.7 µM and the TGI [33] was 60 µM. For the same compound, the TGI [34] was 3.09 µM, the TGI [35] was greater than 100 µM and the TGI [36] was 4.23 µM. For the same compound, the TGI [37] was 3.28 µM, the TGI [38] was 3.56 µM and the TGI [39] was 11.6 µM. The TGI [40] was 37.1 µM, the TGI [41] was 6.83 µM and the TGI [42] was 40.3 µM. It also gave a TGI [43] of 8.45 µM, a TGI [44] of 16.1 µM and a TGI [45] of 11.4 µM. For the same compound, the TGI [46] was 3.01 µM, the TGI [47] was 3.55 µM and the TGI [48] was 9.7 µM. It also gave a TGI [49] of 3.44 µM and a TGI [50] of 4.62 µM.
Work on `O=c1c2ccccc2nc2sc(/N=C/C=C/c3ccccc3)nn12` yielded a TGI [1] greater than 100 µM, a TGI [51] greater than 100 µM and a TGI [52] greater than 100 µM. The TGI [53] was greater than 100 µM, the TGI [54] was greater than 100 µM and the TGI [3] was greater than 100 µM. It also gave a TGI [4] greater than 100 µM, a TGI [5] greater than 100 µM and a TGI [7] greater than 100 µM. For the same compound, the TGI [8] was greater than 100 µM, the TGI [9] was greater than 100 µM and the TGI [10] was greater than 100 µM. It also gave a TGI [55] greater than 100 µM, a TGI [11] greater than 100 µM and a TGI [12] greater than 100 µM. For the same compound, the TGI [13] was greater than 100 µM, the TGI [14] was greater than 100 µM and the TGI [15] was greater than 100 µM. The TGI [16] was greater than 100 µM, the TGI [56] was greater than 100 µM and the TGI [57] was greater than 100 µM. It also gave a TGI [17] greater than 100 µM, a TGI [18] greater than 100 µM and a TGI [19] greater than 100 µM. It also gave a TGI [20] greater than 100 µM, a TGI [21] greater than 100 µM and a TGI [22] greater than 100 µM. It also gave a TGI [23] greater than 100 µM, a TGI [24] greater than 100 µM and a TGI [25] greater than 100 µM. For the same compound, the TGI [26] was greater than 100 µM, the TGI [27] was greater than 100 µM and the TGI [28] was greater than 100 µM. The TGI [29] was greater than 100 µM, the TGI [30] was greater than 100 µM and the TGI [31] was greater than 100 µM. The TGI [32] was greater than 100 µM, the TGI [33] was greater than 100 µM and the TGI [34] was greater than 100 µM. For the same compound, the TGI [35] was greater than 100 µM, the TGI [36] was greater than 100 µM and the TGI [37] was greater than 100 µM. It also gave a TGI [58] greater than 100 µM, a TGI [38] greater than 100 µM and a TGI [39] greater than 100 µM. It also gave a TGI [40] greater than 100 µM, a TGI [41] greater than 100 µM and a TGI [42] greater than 100 µM. For the same compound, the TGI [43] was greater than 100 µM, the TGI [44] was greater than 100 µM and the TGI [45] was greater than 100 µM. For the same compound, the TGI [59] was greater than 100 µM, the TGI [46] was greater than 100 µM and the TGI [47] was greater than 100 µM. The TGI [48] was greater than 100 µM, the TGI [49] was greater than 100 µM and the TGI [50] was greater than 100 µM.
Compound `NS(=O)(=O)c1nnc(NS(=O)(=O)c2ccc(Cl)cc2)s1` has a TGI [1] greater than 100 µM, a TGI [51] greater than 100 µM and a TGI [52] greater than 100 µM. The TGI [53] was greater than 100 µM, the TGI [54] was greater than 100 µM and the TGI [3] was greater than 100 µM. For the same compound, the TGI [4] was greater than 100 µM, the TGI [5] was greater than 100 µM and the TGI [6] was greater than 100 µM. For the same compound, the TGI [7] was greater than 100 µM, the TGI [8] was greater than 100 µM and the TGI [10] was greater than 100 µM. For the same compound, the TGI [55] was greater than 100 µM, the TGI [11] was greater than 100 µM and the TGI [12] was greater than 100 µM. It also gave a TGI [14] greater than 100 µM, a TGI [15] greater than 100 µM and a TGI [16] greater than 100 µM. For the same compound, the TGI [56] was greater than 100 µM, the TGI [57] was greater than 100 µM and the TGI [17] was greater than 100 µM. It also gave a TGI [18] greater than 100 µM, a TGI [19] greater than 100 µM and a TGI [21] greater than 100 µM. The TGI [22] was greater than 100 µM, the TGI [23] was greater than 100 µM and the TGI [24] was greater than 100 µM. The TGI [25] was greater than 100 µM, the TGI [26] was greater than 100 µM and the TGI [28] was greater than 100 µM. The TGI [29] was greater than 100 µM, the TGI [30] was greater than 100 µM and the TGI [31] was greater than 100 µM. It also gave a TGI [32] greater than 100 µM, a TGI [33] greater than 100 µM and a TGI [34] greater than 100 µM. For the same compound, the TGI [35] was greater than 100 µM, the TGI [37] was greater than 100 µM and the TGI [58] was greater than 100 µM. The TGI [38] was greater than 100 µM, the TGI [39] was greater than 100 µM and the TGI [40] was greater than 100 µM. The TGI [41] was greater than 100 µM, the TGI [42] was greater than 100 µM and the TGI [43] was greater than 100 µM. It also gave a TGI [44] greater than 100 µM, a TGI [45] greater than 100 µM and a TGI [59] greater than 100 µM. The TGI [46] was greater than 100 µM, the TGI [47] was greater than 100 µM and the TGI [48] was greater than 100 µM. The TGI [49] was greater than 100 µM and the TGI [50] was greater than 100 µM.
For `O=C(/C=C/c1ccccc1)OCC1=C[C@@H](O)[C@@H]2C=CO[C@@H](OC3OC(CO)C(O)C(O)C3O)[C@H]12` (stereo partly specified), the TGI [1] was greater than 100 µM, the TGI [51] was greater than 100 µM and the TGI [52] was greater than 100 µM. For the same compound, the TGI [53] was greater than 100 µM, the TGI [54] was greater than 100 µM and the TGI [3] was greater than 100 µM. It also gave a TGI [4] greater than 100 µM, a TGI [5] greater than 100 µM and a TGI [6] greater than 100 µM. It also gave a TGI [7] greater than 100 µM, a TGI [8] greater than 100 µM and a TGI [9] greater than 100 µM. For the same compound, the TGI [10] was greater than 100 µM, the TGI [55] was greater than 100 µM and the TGI [11] was greater than 100 µM. The TGI [12] was greater than 100 µM, the TGI [13] was greater than 100 µM and the TGI [14] was greater than 100 µM. For the same compound, the TGI [15] was greater than 100 µM, the TGI [16] was greater than 100 µM and the TGI [56] was greater than 100 µM. For the same compound, the TGI [57] was greater than 100 µM, the TGI [17] was greater than 100 µM and the TGI [18] was greater than 100 µM. For the same compound, the TGI [19] was greater than 100 µM, the TGI [20] was greater than 100 µM and the TGI [21] was greater than 100 µM. For the same compound, the TGI [22] was greater than 100 µM, the TGI [23] was greater than 100 µM and the TGI [24] was greater than 100 µM. For the same compound, the TGI [25] was greater than 100 µM, the TGI [26] was greater than 100 µM and the TGI [27] was greater than 100 µM. The TGI [28] was greater than 100 µM, the TGI [29] was greater than 100 µM and the TGI [30] was greater than 100 µM. It also gave a TGI [31] greater than 100 µM, a TGI [32] greater than 100 µM and a TGI [33] greater than 100 µM. The TGI [34] was greater than 100 µM, the TGI [35] was greater than 100 µM and the TGI [36] was greater than 100 µM. For the same compound, the TGI [37] was greater than 100 µM, the TGI [58] was greater than 100 µM and the TGI [38] was greater than 100 µM. It also gave a TGI [40] greater than 100 µM, a TGI [41] greater than 100 µM and a TGI [42] greater than 100 µM. The TGI [43] was greater than 100 µM, the TGI [45] was greater than 100 µM and the TGI [59] was greater than 100 µM. The TGI [46] was greater than 100 µM, the TGI [47] was greater than 100 µM and the TGI [48] was greater than 100 µM. For the same compound, the TGI [49] was greater than 100 µM and the TGI [50] was greater than 100 µM.

From PubChem BioAssay (NCI)
